In US7604990B2, “Methods of regulating differentiation in stem cells” (ES Cell International Pte Ltd., priority 2002, dated 2009):

Columns and labels:
Format in all cases: cell-based, human
[1] = test system: hES cells; assay: Spontaneous differentiation of hES colonies on MEF in serum-free medium, morphology (Example 2); conditions: 2 weeks serum-free on MEF; S1P 10 μM, PDGF-AB 20 ng/ml, LPA up to 50 μM
Protocol: hES-3 cells were cultured as previously described^1. The serum-free culture medium consisted of DMEM (without sodium pyruvate, glucose 4500 mg/l, Invitrogen, Mount Waverley, VIC, Australia) supplemented with insulin/transferrin/selenium 1%, β-mercaptoethanol 0.1 mM, NEAA 1%, glutamine 2 mM, Hepes 25 mM, penicillin 50 U/ml and streptomycin […] (all from Invitrogen). Media was changed every 2 days and cells were passaged every week S1P and dihydro-S1P were obtained from Biomol (Plymouth Meeting, Pa., USA). LPA was obtained from Sigma (Castle Hill, NSW, Australia). Extemporaneous dilutions of all lipids were made in water containing 0.1% fatty acid-free bovine serum albumin (BSA) (Sigma). […] Human PDGF-AB, PDGF-AA, PDGF-BB were from Prepro Tech Inc. (Rocky Hill, N.J., USA) and were used at 20 ng/ml.

[2] = test system: hES cells; assay: ELISA-based GCTM-2 quantification in hES cells (Example 2); conditions: treated 2 weeks, serum-free; n=3
Protocol: hES-3 cells were cultured as previously described^1. The serum-free culture medium consisted of DMEM (without sodium pyruvate, glucose 4500 mg/l, Invitrogen, Mount Waverley, VIC, Australia) supplemented with insulin/transferrin/selenium 1%, β-mercaptoethanol 0.1 mM, NEAA 1%, glutamine 2 mM, Hepes 25 mM, penicillin 50 U/ml and streptomycin […] (all from Invitrogen). Media was changed every 2 days and cells were passaged every week S1P and dihydro-S1P were obtained from Biomol (Plymouth Meeting, Pa., USA). LPA was obtained from Sigma (Castle Hill, NSW, Australia). Extemporaneous dilutions of all lipids were made in water containing 0.1% fatty acid-free bovine serum albumin (BSA) (Sigma). S1P and dihydro-S1P were used at […]. Human PDGF-AB, PDGF-AA, PDGF-BB were from Prepro Tech Inc. (Rocky Hill, N.J., USA) and were used at 20 ng/ml.
Cells were fixed in 100% ethanol and immunostained with GCTM-2 followed by alkaline phosphatase-coupled secondary antibodies (Dako). Alkaline phosphatase activity was detected by adding a solution of 4-nitrophenyl phosphate (Roche), and the concentration of the reaction product was determined by reading the optical density (OD) at 405 nm. In order to validate the technique as an accurate indicator of the proportion of GCTM-2 positive cells, standard curves were carried out with the embryonal carcinoma cell line GCT27C4, known to express GCTM-2^20.

[3] = test system: hES cells; assay: GCTM-2/PCNA immunostaining cell count, dissociated hES cells without MEF and serum (Example 1); conditions: 4 days, no MEF, no serum
Source text: (A) Quantification of the number of GCTM2+ cells. (B) Quantification of the number of PCNA+/GCTM2+ cells.
In some experiments, hES-3 cells plated onto 8-well chamber slides, with or without MEF, were fixed in ethanol or paraformaldehyde (for PDGFR) the day after plating. In others, hES-3 cells were mechanically dissociated, in order to obtain a monolayer culture and then plated onto 8-well chamber slides without MEF and were fixed in ethanol 4 days after the first treatment. Immunostaining was performed using the following antibodies: anti human PDGFR-α or PDGFR-β (R&D Systems Inc.), GCTM-2, and/or PCNA (Chemicon, Boronia, VIC, Australia), TRA-1-60, Oct-4. Nuclei were evidenced by Hoechst-33342. Slides were mounted and observed by fluorescent microscopy with a Leica microscope at ×10, ×20 and ×40. Specificity was verified by the absence of any staining in the negative controls. In some experiments, cells were counted to determine the ratio of GCTM-2 positive (GCTM2+), PCNA positive (PCNA+) and GCTM2+/PCNA+ cells within the global population.

[4] = test system: ERKs (Erk1 and Erk2) in hES cells; assay: ERK phosphorylation Western blot in hES cells (Example 1); conditions: hES cells, 5 min; S1P 10 μM, LPA 50 M, PDGF 20 ng/ml
Protocol: RT-PCR for LPL receptors (A, B), PDGFR-[…] (alpha) and PDGFR-[…] (beta) (C), SPK-1 and SPK-2 (D), with (+) or without (−) RT. Immunostaining of hES cells with Hoechst 33342 (E, H), PDGFR-[…] (F) or PDGFR-[…] (I) and GCTM-2 (G, J) antibodies. S1P, LPA and PDGF stimulate ERKs phosphorylation in hES cells. (K) Western blots experiment were performed using protein lysate from hES cells. Cells were pre-treated or not with U0126 (30 μM, 1 hr) and incubated for 5 min in the absence (C, control) or presence of S1P (S, 10 μM), LPA (L, […]) or PDGF (P, 20 ng/ml). The phosphorylation of Erk1 and Erk2 (P-Erk1 and P-Erk2) was assessed by immunoblotting with a polyclonal anti-active MAP kinase as described in Materials and Methods. After a stripping procedure, the same blots were reprobed with a monoclonal anti-MAP kinase, allowed the detection of Erk1 and Erk2.
hES-3 cells plated without MEF for 24 hrs were depleted of serum for a further 18 hrs. Cells pre-treated or not with U0126 (Sigma, 30 μM, 1 hr), were incubated in the presence of the different agents for 5 min and were lysed by removal of the supernatants and addition of a reducing loading buffer containing 1 mM sodium orthovanadate (Sigma). Protein lysates (approx. 80 μg) were separated by SDS-polyacrylamide gel electrophoresis (10% polyacrylamide, w/v), transferred to nitrocellulose (Hybond-nitrocellulose, Amersham) and immunoblotting was carried out using rabbit polyclonal anti-active mitogen-activated protein (MAPK) antibodies raised against a dually phosphorylated MAPK peptide (Promega, Madison, Wis., USA). Peroxidase-coupled secondary antibody (Dako) was detected by exposure of autoradiographic films in the presence of a chemiluminescent detection reagent (ECL, Amersham). Stripping of antibodies was achieved and membranes were then reprobed with rabbit polyclonal anti-ERK1/2 antibodies (Promega), and then with peroxidase-coupled secondary antibodies (Dako). Membranes probed with either rabbit polyclonal anti-active p38 (Promega) or rabbit polyclonal anti-active JNK (Promega) antibodies were also performed, using the same procedure as described above.

| Molecule | size or morphology of hES cell colonies (spontaneous differentiation) [1] | more GCTM2+ than the controls [2] [%] | proliferating rate of hES cells (PCNA+) versus control [3] | phosphorylation of ERKs [4] | cells GCTM2+ ([3]; mechanically dissociated, S1P 10 μM, PDGF 10 ng/ml) [%] |
| --- | --- | --- | --- | --- | --- |
| CCCCCCCCCCCCC/C=C/[C@@H](O)[C@@H](N)COP(=O)(O)O [S1P, Sphingosine-1-phosphate] | flatter and less differentiated | 18.0±17.0 | no statistically significant difference | stimulated the phosphorylation of ERKs | – |
| PDGF | flatter and less differentiated | 50.3±18.4 | no statistically significant difference | stimulated the phosphorylation of ERKs | 53.7±13.2 |
